Test results from US12174198B2, “Methods of characterizing condensate-associated characteristics of compounds and uses thereof” (Dewpoint Therapeutics, Inc., priority 2019, dated 2024).

What was measured:
FUS-SNAP condensates = target: T1, FUS-SNAP condensates (Homo sapiens, UniProt P35637); assay: Fluorescence imaging of dye partitioning in FUS-SNAP condensates (I-in, I-out); type: physicochemical; conditions: for Intensity Inside with Dye Average / Intensity Inside with Dye 1 / Intensity Inside with Dye 2 / Intensity Inside with Dye 3 / Intensity Inside Dye-No Dye: inside FUS-SNAP condensate; for Intensity Inside with Dye Average / Intensity Inside with Dye 1 / Intensity Inside with Dye 2 / Intensity Inside with Dye 3 / Intensity Outside with Dye Average / Intensity Outside with Dye 1 / Intensity Outside with Dye 2 / Intensity Outside with Dye 3: 5 μM protein; for Intensity Inside with Dye Average / Intensity Outside with Dye Average: average of three images; for Intensity Inside with Dye Average / Intensity Inside with Dye 1 / Intensity Inside with Dye 2 / Intensity Inside with Dye 3 / Intensity Inside Dye-No Dye / Intensity Outside with Dye Average / Intensity Outside with Dye 1 / Intensity Outside with Dye 2 / Intensity Outside with Dye 3 / Intensity Outside (Dye-No Dye): one day of experiments; for Intensity Inside with Dye 1 / Intensity Outside with Dye 1: image 1; for Intensity Inside with Dye 2 / Intensity Outside with Dye 2: image 2; for Intensity Inside with Dye 3 / Intensity Outside with Dye 3: image 3; for Intensity Inside Dye-No Dye / Intensity Outside (Dye-No Dye): background corrected; for Intensity Outside with Dye Average / Intensity Outside with Dye 1 / Intensity Outside with Dye 2 / Intensity Outside with Dye 3 / Intensity Outside (Dye-No Dye): outside FUS-SNAP condensate
T1 sequence (P35637 1-526): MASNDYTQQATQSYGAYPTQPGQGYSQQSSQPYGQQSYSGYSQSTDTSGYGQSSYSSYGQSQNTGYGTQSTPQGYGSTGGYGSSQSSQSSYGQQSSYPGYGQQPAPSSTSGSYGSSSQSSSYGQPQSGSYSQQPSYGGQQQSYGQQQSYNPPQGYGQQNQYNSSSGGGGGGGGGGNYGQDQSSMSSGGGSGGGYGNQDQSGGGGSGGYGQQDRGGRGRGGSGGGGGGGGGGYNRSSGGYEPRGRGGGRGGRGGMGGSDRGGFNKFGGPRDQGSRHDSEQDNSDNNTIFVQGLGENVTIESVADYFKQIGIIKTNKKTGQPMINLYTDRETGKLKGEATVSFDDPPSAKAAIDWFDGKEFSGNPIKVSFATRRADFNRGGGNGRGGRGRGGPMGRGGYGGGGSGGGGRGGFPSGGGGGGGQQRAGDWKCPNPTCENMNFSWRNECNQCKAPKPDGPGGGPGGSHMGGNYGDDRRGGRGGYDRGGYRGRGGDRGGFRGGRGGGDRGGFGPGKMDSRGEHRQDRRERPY
Protocol: (§1) All dye-stocks were stored as 1 mM solutions in 100% DMSO. The dyes were dissolved in dilution buffer (DB: 14.7 mM Tris, pH 7.25, 1 mM DTT) to yield 11.765 μM dye in 1.1765 DMSO. 17 μl of dye was distributed in a 384 well non-binding plate (Greiner).
(§2) Either SNAP-tagged FUS protein or tag-free PGL-3 protein was thawed at room temperature for at least 10 min, and the buffer was exchanged to partitioning buffer (PB: 50 mM Tris pH 7.25, 500 mM KCl, 5% Glycerol, and 1 mM DTT). The protein was then diluted to 33.3 μM in PB. 3 μl of protein solution were added to the 384 well plate to initiate phase separation, yielding 20 μl of 5 μM protein and 10 μM dye in 75 mM KCl, 0.75% Glycerol, 20 mM Tris, 1 mM DTT, and 1% DMSO or for no dye control reactions, 20 μl of 5 μM protein in 75 mM KCl, 0.75% Glycerol, 20 mM Tris, 1 mM DTT.
(§3) A spinning disk confocal microscope was used to acquire images of the samples. A 60×oil high-NA objective lens was used to capture the condensate droplets. The laser power was set to 20% and the exposure times were adjusted to the fluorescence emission intensity specific for each dye. Exposure times ranged from 1-1000 ms. Appropriate filter settings were used, matching the excitation and emission spectra of the respective dyes. Three images per well were taken. The background signal of protein droplets in the absence of dye was recorded for all applied imaging conditions.
(§4) Fluorescence intensity was measured inside one exemplary target condensate (Intensity inside, I-in) per image and in a region next to the exemplary target condensate (Intensity outside, I-out) by hand using the image analysis software Fiji. An example depicting the regions measured is shown FIG. 2A. Three I-in and three I-out values were measured in total for each dye in each experiment and were averaged. The measured I-in and I-out values for FUS-SNAP condensates on one day of experiments are shown in Table 2 and Table 3, respectively. The measured I-in and I-out values for PGL-3 condensates on one day of experiments are shown in Table 4 and Table 5, respectively. All values were background corrected, based on the background images (no dye controls) taken with the same microscope conditions.
(§5) The ratios of the average intensity measured in the target condensates and outside of the target condensates were calculated by dividing I-in by I-out, although dividing I-out by I-in could also have been used. The I-in:I-out ratios determined from the two different days of experiments were then averaged. The average I-in:I-out ratios for FUS-SNAP condensates are shown in FIG. 3 and the average I-in:I-out ratios for PGL-3 condensates are shown in FIG. 4. The standard deviation between the two experiments is represented by the error bars in FIG. 3 and FIG. 4.

PGL-3 condensates = target: T2, PGL-3 condensates (Caenorhabditis elegans, UniProt G5EBV6); assay: Fluorescence imaging of dye partitioning in PGL-3 condensates (I-in, I-out); type: physicochemical; conditions: for Ratio of intensity inside:outside PGL-3 Condensates Day 2 / Ratio of intensity inside:outside PGL-3 Condensates Day 1: I-in:I-out; for Ratio of intensity inside:outside PGL-3 Condensates Day 2 / Intensity Inside with Dye Average / Intensity Inside with Dye 1 / Intensity Inside with Dye 2 / Intensity Inside with Dye 3 / Intensity Outside with Dye Average / Intensity Outside with Dye 1 / Intensity Outside with Dye 2 / Intensity Outside with Dye 3 / Ratio of intensity inside:outside PGL-3 Condensates Day 1: 10 μM dye; for Intensity Inside with Dye Average / Intensity Inside with Dye 1 / Intensity Inside with Dye 2 / Intensity Inside with Dye 3 / Intensity Inside Dye-No Dye: inside PGL-3 condensate; for Intensity Inside with Dye Average / Intensity Inside with Dye 1 / Intensity Inside with Dye 2 / Intensity Inside with Dye 3 / Intensity Outside with Dye Average / Intensity Outside with Dye 1 / Intensity Outside with Dye 2 / Intensity Outside with Dye 3: 5 μM protein; for Intensity Inside with Dye Average / Intensity Outside with Dye Average: average of three images; for Intensity Inside with Dye Average / Intensity Inside with Dye 1 / Intensity Inside with Dye 2 / Intensity Inside with Dye 3 / Intensity Inside Dye-No Dye / Intensity Outside with Dye Average / Intensity Outside with Dye 1 / Intensity Outside with Dye 2 / Intensity Outside with Dye 3 / Intensity Outside (Dye-No Dye): one day of experiments; for Intensity Inside with Dye 1 / Intensity Outside with Dye 1: image 1; for Intensity Inside with Dye 2 / Intensity Outside with Dye 2: image 2; for Intensity Inside with Dye 3 / Intensity Outside with Dye 3: image 3; for Intensity Inside Dye-No Dye / Intensity Outside (Dye-No Dye): background corrected; for Intensity Outside with Dye Average / Intensity Outside with Dye 1 / Intensity Outside with Dye 2 / Intensity Outside with Dye 3 / Intensity Outside (Dye-No Dye): outside PGL-3 condensate
T2 sequence (G5EBV6 1-693): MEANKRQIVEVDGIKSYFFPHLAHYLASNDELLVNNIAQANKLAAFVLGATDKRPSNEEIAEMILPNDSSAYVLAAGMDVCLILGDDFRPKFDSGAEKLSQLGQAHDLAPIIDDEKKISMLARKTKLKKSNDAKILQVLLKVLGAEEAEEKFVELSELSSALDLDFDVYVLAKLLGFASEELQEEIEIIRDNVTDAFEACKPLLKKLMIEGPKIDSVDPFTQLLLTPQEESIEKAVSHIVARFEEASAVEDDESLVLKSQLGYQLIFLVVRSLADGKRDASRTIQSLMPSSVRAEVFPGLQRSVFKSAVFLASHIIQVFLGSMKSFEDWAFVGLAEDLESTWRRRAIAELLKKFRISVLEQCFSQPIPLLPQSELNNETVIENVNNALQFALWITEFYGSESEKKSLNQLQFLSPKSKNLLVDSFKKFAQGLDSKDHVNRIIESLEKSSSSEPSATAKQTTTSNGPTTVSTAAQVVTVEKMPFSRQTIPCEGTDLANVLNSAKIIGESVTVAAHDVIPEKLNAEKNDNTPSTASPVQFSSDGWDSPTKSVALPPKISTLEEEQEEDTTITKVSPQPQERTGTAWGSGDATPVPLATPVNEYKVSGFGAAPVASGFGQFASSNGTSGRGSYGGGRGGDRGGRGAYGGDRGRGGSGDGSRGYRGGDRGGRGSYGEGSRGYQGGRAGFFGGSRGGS
Protocol: as §1, §2, §3, §4, §5

| Structure (SMILES) | Ratio of intensity inside:outside FUS-SNAP Condensates Day 1 (FUS-SNAP condensates; I-in:I-out, 10 μM dye) | Intensity Inside with Dye Average (FUS-SNAP condensates; 10 μM dye) | Intensity Inside with Dye 1 (FUS-SNAP condensates; 10 μM dye) | Intensity Inside with Dye 2 (FUS-SNAP condensates; 10 μM dye) | Intensity Inside with Dye 3 (FUS-SNAP condensates; 10 μM dye) | Intensity Inside Dye-No Dye (FUS-SNAP condensates) | Intensity Outside with Dye Average (FUS-SNAP condensates; 10 μM dye) | Intensity Outside with Dye 1 (FUS-SNAP condensates; 10 μM dye) | Intensity Outside with Dye 2 (FUS-SNAP condensates; 10 μM dye) | Intensity Outside with Dye 3 (FUS-SNAP condensates; 10 μM dye) | Intensity Outside (Dye-No Dye) (FUS-SNAP condensates) | Ratio of intensity inside:outside PGL-3 Condensates Day 2 (PGL-3 condensates) | Intensity Inside with Dye Average (PGL-3 condensates) | Intensity Inside with Dye 1 (PGL-3 condensates) | Intensity Inside with Dye 2 (PGL-3 condensates) | Intensity Inside with Dye 3 (PGL-3 condensates) | Intensity Inside Dye-No Dye (PGL-3 condensates) | Intensity Outside with Dye Average (PGL-3 condensates) | Intensity Outside with Dye 1 (PGL-3 condensates) | Intensity Outside with Dye 2 (PGL-3 condensates) | other results |
| --- | --- | --- | --- | --- | --- | --- | --- | --- | --- | --- | --- | --- | --- | --- | --- | --- | --- | --- | --- | --- | --- |
| CC/N=c1/cc2oc3cc(NCC)c(C)cc3c(-c3ccccc3C(=O)NCCOCCOCCN)c-2cc1C.O=C(O)C(F)(F)F [Dye 15, N-(8-Amino-3,6-dioxaoctyl)-rhodamine 6G-amide bis(trifluoroacetate)] | 70.8 | 3480.0 | 3084.2 | 3756.7 | 3599.3 | −732.6 | 539.8 | 559.0 | 527.6 | 532.7 | −10.3 | 3.3 | 6487.9 | 6831.9 | 6829.0 | 5802.8 | 1228.1 | 1263.8 | 1289.1 | 1266.2 | Intensity Outside with Dye 3 (PGL-3 condensates): 1236.3; Intensity Outside (Dye-No Dye) (PGL-3 condensates): 555.7 |
| CC(=O)Oc1ccc2c(c1)Oc1cc(OC(C)=O)ccc1C21OC(=O)c2ccccc21 [Dye 9, Fluorescein diacetate] | 1.9 | 6034.1 | 5836.4 | 6036.1 | 6229.9 | 1821.5 | 1485.0 | 1487.5 | 1414.8 | 1552.6 | 934.8 | −0.4 | 828.6 | 824.1 | 801.2 | 860.4 | 231.3 | 269.2 | 269.6 | 264.9 | Ratio of intensity inside:outside FUS-SNAP Condensates Day 2 (FUS-SNAP condensates; I-in:I-out, Day 2, 10 μM dye): 1.5; Ratio of intensity inside:outside FUS-SNAP Condensates Average (FUS-SNAP condensates; I-in:I-out, average of two days, 10 μM dye): 1.7; Ratio of intensity inside:outside PGL-3 Condensates Day 1 (PGL-3 condensates): 2.2; Intensity Outside with Dye 3 (PGL-3 condensates): 273.2; Intensity Outside (Dye-No Dye) (PGL-3 condensates): 106.3 |
| O=C1OC2(c3ccc(O[C@@H]4O[C@H](CO)[C@H](O)[C@H](O)[C@H]4O)cc3Oc3cc(O[C@@H]4O[C@H](CO)[C@H](O)[C@H](O)[C@H]4O)ccc32)c2ccccc21 [Dye 12, Fluorescein di(β-D-galacto-pyranoside)] | −2.3 | 478.0 | 456.2 | 508.6 | 469.3 | −19.5 | 148.6 | 150.1 | 142.8 | 152.9 | 8.5 | 1.9 | 690.1 | 689.4 | 656.9 | 723.9 | 92.8 | 206.4 | 208.4 | 203.2 | Ratio of intensity inside:outside PGL-3 Condensates Day 1 (PGL-3 condensates): 2.1; Intensity Outside with Dye 3 (PGL-3 condensates): 207.7; Intensity Outside (Dye-No Dye) (PGL-3 condensates): 43.5 |
